How the values were obtained:
Assay in all cases: KinomeScan 96-kinase panel
Type in all cases: binding
Conditions in all cases: compound concentration 1000 nM
[1] = target: FLT3 (Homo sapiens (Human), UniProt P36888)
From the text: (§1) The details of the screening technology were described in Fabian, M. A. et al, Nat., Biotechnol. 2005, 23, 329 and Karaman, M. W. et al, Nat., Biotechnol. 2008, 26, 127. From the above representative results, it can be seen that the compounds of the present invention have potent inhibitory activities on kinases including ALK, AXL, VEGFR2, PDGFR-α, PDGFR-β, c-KIT, Flt3, MEK1, MEK2, CSF1R, EPHA2, EPHA2, MKNK2, SRC, TIE2 and their mutants. Accordingly, the compounds of the present invention can be used for the treatment of diseases caused by abnormal activities of these kinases, e.g., cancer, psoriasis, hepatic cirrhosis, diabetes, diseases involving angiogenesis, eye diseases, immune system diseases, cardiovascular diseases, and so forth.

[2] = target: INSR (Homo sapiens (Human), UniProt P06213)
INSR, sequence (P06213 28-1382): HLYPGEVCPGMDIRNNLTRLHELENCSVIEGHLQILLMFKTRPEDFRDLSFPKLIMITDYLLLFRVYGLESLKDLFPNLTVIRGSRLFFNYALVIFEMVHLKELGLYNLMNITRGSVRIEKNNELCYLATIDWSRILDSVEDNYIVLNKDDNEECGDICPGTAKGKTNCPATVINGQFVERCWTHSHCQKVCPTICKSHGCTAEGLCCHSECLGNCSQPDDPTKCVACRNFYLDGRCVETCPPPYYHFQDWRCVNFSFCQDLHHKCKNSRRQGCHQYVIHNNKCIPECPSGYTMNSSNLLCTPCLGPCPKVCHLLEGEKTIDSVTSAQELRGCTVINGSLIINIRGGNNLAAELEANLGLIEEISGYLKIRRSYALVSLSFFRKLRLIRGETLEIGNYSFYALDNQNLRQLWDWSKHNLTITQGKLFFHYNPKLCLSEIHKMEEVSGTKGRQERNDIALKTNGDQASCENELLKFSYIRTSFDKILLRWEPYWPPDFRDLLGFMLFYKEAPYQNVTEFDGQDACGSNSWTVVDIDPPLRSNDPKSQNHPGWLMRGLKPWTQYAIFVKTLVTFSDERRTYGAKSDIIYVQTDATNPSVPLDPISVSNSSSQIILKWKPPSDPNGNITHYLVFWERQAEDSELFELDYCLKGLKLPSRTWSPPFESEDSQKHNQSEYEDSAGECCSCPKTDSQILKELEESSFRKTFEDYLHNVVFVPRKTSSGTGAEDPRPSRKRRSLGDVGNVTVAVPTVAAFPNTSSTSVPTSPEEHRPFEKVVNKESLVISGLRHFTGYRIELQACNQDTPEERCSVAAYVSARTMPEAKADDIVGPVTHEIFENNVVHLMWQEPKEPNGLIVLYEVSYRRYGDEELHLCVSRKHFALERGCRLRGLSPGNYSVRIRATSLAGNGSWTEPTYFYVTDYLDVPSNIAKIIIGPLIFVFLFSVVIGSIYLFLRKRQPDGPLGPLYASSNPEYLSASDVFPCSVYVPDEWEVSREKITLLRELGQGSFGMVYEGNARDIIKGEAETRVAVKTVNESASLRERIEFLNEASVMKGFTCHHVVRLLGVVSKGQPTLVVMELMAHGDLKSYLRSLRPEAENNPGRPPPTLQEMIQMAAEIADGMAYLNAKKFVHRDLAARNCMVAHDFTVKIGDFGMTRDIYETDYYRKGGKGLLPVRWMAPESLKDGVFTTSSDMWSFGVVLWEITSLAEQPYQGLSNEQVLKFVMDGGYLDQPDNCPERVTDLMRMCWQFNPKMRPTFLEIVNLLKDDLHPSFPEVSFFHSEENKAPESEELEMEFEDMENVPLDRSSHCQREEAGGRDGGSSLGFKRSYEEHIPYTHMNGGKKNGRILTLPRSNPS
From the text: as §1

[3] = target: CHEK1 (Homo sapiens (Human), UniProt O14757)
CHEK1, sequence (O14757 whole entry): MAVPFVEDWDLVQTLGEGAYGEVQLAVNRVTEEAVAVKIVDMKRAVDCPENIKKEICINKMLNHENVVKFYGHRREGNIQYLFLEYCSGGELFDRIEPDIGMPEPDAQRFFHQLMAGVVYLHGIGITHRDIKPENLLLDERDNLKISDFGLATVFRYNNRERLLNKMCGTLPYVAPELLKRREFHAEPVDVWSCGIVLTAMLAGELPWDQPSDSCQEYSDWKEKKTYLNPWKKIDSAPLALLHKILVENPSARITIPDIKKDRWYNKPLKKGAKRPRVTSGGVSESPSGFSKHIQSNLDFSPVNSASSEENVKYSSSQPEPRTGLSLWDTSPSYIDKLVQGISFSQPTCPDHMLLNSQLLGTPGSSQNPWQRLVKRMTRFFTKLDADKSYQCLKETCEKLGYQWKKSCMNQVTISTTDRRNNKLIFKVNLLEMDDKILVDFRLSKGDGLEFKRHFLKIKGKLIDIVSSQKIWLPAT
From the text: as §1

[4] = target: RIOK2 (Homo sapiens (Human), UniProt Q9BVS4)
From the text: as §1

[5] = target: TGFBR1 (Homo sapiens (Human), UniProt P36897)
From the text: as §1

[6] = target: IKK-alpha (Homo sapiens (Human), UniProt O15111)
From the text: as §1

[7] = target: PIK3C2B (Homo sapiens (Human), UniProt O00750)
From the text: as §1

[8] = target: BMPR2 (Homo sapiens (Human), UniProt Q13873)
From the text: as §1

[9] = target: RAF1 (Homo sapiens (Human), UniProt P04049)
RAF1, sequence (P04049 whole entry): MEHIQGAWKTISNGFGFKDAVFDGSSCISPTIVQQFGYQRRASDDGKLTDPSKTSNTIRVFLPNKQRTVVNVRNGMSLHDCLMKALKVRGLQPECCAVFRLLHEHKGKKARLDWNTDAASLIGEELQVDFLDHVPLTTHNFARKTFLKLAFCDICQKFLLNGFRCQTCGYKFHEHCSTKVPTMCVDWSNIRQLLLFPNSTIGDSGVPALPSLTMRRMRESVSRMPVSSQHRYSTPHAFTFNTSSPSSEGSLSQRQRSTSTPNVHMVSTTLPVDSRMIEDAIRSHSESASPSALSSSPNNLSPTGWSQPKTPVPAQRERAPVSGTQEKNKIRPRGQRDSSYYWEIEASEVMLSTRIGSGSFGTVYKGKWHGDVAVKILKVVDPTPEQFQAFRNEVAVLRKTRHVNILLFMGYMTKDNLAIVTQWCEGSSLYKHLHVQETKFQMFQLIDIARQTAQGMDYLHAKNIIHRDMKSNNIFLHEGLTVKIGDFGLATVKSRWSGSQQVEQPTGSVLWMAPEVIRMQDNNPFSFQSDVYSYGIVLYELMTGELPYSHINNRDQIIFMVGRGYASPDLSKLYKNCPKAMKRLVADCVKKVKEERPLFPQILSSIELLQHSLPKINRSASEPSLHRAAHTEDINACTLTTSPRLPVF
From the text: as §1

[10] = target: p38-alpha (Homo sapiens (Human), UniProt Q16539)
From the text: as §1

[11] = target: PDGFRB (Homo sapiens (Human), UniProt P09619)
From the text: as §1

[12] = target: ROCK2 (Homo sapiens (Human), UniProt O75116)
From the text: as §1

[13] = target: PKAC-alpha (Homo sapiens (Human), UniProt P17612)
From the text: as §1

[14] = target: CSNK1G2 (Homo sapiens (Human), UniProt P78368)
CSNK1G2, sequence (P78368 whole entry): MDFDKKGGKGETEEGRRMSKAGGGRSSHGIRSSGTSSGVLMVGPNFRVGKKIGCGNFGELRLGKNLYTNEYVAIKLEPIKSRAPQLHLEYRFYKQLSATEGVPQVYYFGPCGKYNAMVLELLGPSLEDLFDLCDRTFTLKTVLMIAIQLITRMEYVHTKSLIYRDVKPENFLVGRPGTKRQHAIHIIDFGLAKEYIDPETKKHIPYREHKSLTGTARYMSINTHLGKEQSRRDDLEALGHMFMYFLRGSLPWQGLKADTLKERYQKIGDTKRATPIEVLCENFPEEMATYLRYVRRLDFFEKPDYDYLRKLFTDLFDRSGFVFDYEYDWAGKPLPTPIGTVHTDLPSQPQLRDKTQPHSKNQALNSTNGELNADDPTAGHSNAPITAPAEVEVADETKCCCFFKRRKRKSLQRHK
From the text: as §1

[15] = target: GSK3B (Homo sapiens (Human), UniProt P49841)
From the text: as §1

[16] = target: PDGFRA (Homo sapiens (Human), UniProt P16234)
PDGFRA, sequence (P16234 24-1089): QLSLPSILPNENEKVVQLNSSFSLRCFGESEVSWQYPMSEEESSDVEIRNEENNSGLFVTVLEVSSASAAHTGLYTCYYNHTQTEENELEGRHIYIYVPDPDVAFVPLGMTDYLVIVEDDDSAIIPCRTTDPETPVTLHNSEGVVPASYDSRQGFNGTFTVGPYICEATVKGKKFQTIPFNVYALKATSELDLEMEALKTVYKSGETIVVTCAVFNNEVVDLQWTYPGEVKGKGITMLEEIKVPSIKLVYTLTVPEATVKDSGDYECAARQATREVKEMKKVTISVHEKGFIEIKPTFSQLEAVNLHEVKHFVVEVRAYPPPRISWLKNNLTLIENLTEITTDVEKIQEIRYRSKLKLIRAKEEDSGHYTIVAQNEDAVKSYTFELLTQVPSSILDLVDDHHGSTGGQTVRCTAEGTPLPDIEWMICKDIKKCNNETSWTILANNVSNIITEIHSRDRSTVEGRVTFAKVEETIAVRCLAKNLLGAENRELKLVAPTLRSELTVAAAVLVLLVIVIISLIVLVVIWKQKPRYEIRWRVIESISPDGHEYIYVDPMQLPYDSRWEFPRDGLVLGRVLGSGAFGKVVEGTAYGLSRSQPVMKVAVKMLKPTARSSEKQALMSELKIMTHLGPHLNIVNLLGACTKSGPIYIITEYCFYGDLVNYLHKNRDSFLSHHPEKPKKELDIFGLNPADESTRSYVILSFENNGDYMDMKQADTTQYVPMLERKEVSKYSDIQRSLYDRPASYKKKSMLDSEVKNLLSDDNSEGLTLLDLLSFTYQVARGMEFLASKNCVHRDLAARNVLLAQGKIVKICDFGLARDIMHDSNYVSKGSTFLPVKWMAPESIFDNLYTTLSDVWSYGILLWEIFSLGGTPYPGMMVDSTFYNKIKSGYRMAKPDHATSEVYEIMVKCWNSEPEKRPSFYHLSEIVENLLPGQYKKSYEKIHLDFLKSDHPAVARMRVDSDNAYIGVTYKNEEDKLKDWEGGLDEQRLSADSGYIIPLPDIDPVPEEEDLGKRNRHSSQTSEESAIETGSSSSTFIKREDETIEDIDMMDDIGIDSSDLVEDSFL
From the text: as §1

[17] = target: AURKB (Homo sapiens (Human), UniProt Q96GD4)
AURKB, sequence (Q96GD4 whole entry): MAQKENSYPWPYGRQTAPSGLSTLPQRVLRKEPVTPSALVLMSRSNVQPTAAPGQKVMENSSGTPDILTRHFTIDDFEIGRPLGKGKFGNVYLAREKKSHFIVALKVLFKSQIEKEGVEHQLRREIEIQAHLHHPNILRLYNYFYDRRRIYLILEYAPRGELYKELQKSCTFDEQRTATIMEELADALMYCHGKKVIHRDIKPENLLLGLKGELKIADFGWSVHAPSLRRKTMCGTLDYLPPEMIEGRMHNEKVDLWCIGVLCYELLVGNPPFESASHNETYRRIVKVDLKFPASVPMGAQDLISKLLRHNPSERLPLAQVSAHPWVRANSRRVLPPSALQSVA
From the text: as §1

[18] = target: ACVR1B (Homo sapiens (Human), UniProt P36896)
From the text: as §1

[19] = target: CDK9 (Homo sapiens (Human), UniProt P50750)
From the text: as §1

[20] = target: ABL1-phosphorylated (Homo sapiens (Human), UniProt P00519)
From the text: as §1

[21] = target: PDPK1 (Homo sapiens (Human), UniProt O15530)
PDPK1, sequence (O15530 whole entry): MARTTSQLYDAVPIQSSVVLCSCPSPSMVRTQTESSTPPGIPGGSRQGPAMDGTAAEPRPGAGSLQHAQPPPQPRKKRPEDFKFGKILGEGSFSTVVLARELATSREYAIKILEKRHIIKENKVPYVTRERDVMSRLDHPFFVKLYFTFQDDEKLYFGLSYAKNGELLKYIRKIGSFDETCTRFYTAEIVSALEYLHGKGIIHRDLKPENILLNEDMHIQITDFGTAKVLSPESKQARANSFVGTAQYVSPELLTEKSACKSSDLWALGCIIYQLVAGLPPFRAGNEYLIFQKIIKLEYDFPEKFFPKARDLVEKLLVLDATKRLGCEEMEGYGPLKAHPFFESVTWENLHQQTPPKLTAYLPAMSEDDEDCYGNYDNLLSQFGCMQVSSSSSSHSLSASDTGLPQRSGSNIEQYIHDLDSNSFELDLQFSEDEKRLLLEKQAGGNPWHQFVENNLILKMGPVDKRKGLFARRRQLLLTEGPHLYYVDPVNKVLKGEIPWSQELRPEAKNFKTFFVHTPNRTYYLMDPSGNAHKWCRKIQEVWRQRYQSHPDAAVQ
From the text: as §1

[22] = target: ULK2 (Homo sapiens (Human), UniProt Q8IYT8)
From the text: as §1

## COc1cc2c(Oc3ccc(NC(=O)C4(C(=O)Nc5ccc(F)cc5)CC4)cc3F)ccnc2cc1OCCCCCC(=O)NO [Example 13, N1′-[3-fluoro-4-[[7-[6-(hydroxyamino)-6-oxohexyloxy]-6-methoxy-4-quinolyl]oxy]phenyl]-N1-(4-fluorophenyl)cyclopropane-1,1-dicarboxamide]
[1]
  % Ctrl@1000 nM: 0.85 % Ctrl
[2]
  % Ctrl@1000 nM: 6 % Ctrl
[3]
  % Ctrl@1000 nM: 96 % Ctrl
[4]
  % Ctrl@1000 nM: 100 % Ctrl
[5]
  % Ctrl@1000 nM: 85 % Ctrl
[6]
  % Ctrl@1000 nM: 100 % Ctrl
[7]
  % Ctrl@1000 nM: 99 % Ctrl
[8]
  % Ctrl@1000 nM: 100 % Ctrl
[9]
  % Ctrl@1000 nM: 53 % Ctrl
[10]
  % Ctrl@1000 nM: 43 % Ctrl
[11]
  % Ctrl@1000 nM: 0 % Ctrl
[12]
  % Ctrl@1000 nM: 53 % Ctrl
[13]
  % Ctrl@1000 nM: 100 % Ctrl
[14]
  % Ctrl@1000 nM: 99 % Ctrl
[15]
  % Ctrl@1000 nM: 100 % Ctrl
[16]
  % Ctrl@1000 nM: 1.8 % Ctrl
[17]
  % Ctrl@1000 nM: 7 % Ctrl
[18]
  % Ctrl@1000 nM: 90 % Ctrl
[19]
  % Ctrl@1000 nM: 67 % Ctrl
[20]
  % Ctrl@1000 nM: 4.8 % Ctrl
[21]
  % Ctrl@1000 nM: 87 % Ctrl
[22]
  % Ctrl@1000 nM: 100 % Ctrl
